The assay has as its target T1, EEF2K (Homo sapiens, UniProt O00418).
T1 construct: purchased Thermo Fisher Scientific (Life Technologies) SelectScreen
The experiment in a line: SelectScreen Z'LYTE. It counts as biochemical. The method, boiled down:
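Percent values come from Thermo SelectScreen profiling of NU5455, combining activity and binding assays. CSF1R was run in Z'LYTE format at Km app ATP, and CAMK1 in Adapta format with ATP listed at 10.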

Data on one compound can be found in article PMC6934184, “Selective DNA-PKcs inhibition extends the therapeutic index of localized radiotherapy and chemotherapy” (The Journal of Clinical Investigation, 2019).

Each structure is given as a SMILES string.

The term inhibition denotes the relative decrease from the control value, in per cent. As to `CN(C(=O)CN1CCOCC1)c1ccc2sc3c(-c4cccc5c(=O)cc(N6CC7CCC(C6)O7)oc45)cccc3c2c1` [NU5455], the inhibition at 1 µM is -2.4%.
